The numbers were not newly measured in patent publication US20190201327A1 (AMPERSAND BIOPHARMACEUTICALS, INC., priority 2017, published 2019), which cites them from elsewhere.

In this data set the test system is neovascularization.

Consider `CC1=C(CO)C(=O)O[C@@H]([C@@H](C)[C@H]2CC[C@H]3[C@@H]4C[C@H]5O[C@]56[C@@H](O)C(N=[N+]=[N-])CC(=O)[C@]6(C)[C@H]4CC[C@]23C)C1` (stereo partly shown) [3-azido WFA, 3-azido Withaferin A], for which the neovascularization in vivo entry was “abrogated neovascularization in vivo in a dose dependent manner”.
